# Entries after “also recorded” stand apart in the source; their conditions may differ.
# What was measured:
# [1] = test system: HepG2 cells; test: PrestoBlue cell viability assay in HepG2 cells; type: cell-based, human; conditions: 48 hours incubation
# From the text: Methanol or DMSO were used as vehicles, at concentrations 0, 0.001, 0.01, 0.1, and 1% (methanol) or 0, 0.001, 0.01, 0.1, and 1% (DMSO), respectively. […] Non-treated cells were assigned 100% viability. Bar graphs show the mean+/−SD, n=3.
# Non-treated cells were assigned 100% viability. Bar graphs show the mean+/−SD, n=3.
# [2] = In vitro metabolic stability assay, human AB serum; type: in vitro ADME; conditions: 10% human AB serum
# From the text: (§1) A fundamental evaluation in drug development is the assessment of absorption, distribution, metabolism, excretion, and pharmacokinetics (ADME/PK) (Eddershaw et al., 2000, Drug Discovery Today 5(9): 409-414). […] Drug stability upon exposure to human liver microsomes and liver S9 cellular fractions is a common in vitro assay to approximate in vivo, liver-based drug metabolism (Richardson et al., 2016 Drug Metabolism Letters 10:83-90). First-pass metabolism is also often approximated in vitro using intestinal microsome and cellular S9 fractions (Hatley et al., 2017, Biopharmaceuticals & Drug Disposition, 38(2):155-160). Further, it is well known that human serum, and particularly circulating serum esterases can contribute to systemic drug metabolism (Williams, F M 1987, Pharmacology and Therapeutics, 34:99-109). Many pharmacological agents are classified as prodrugs, as they undergo metabolic transformation in vivo upon administration to release the active drug compound into the systemic compartment (Zawilska J B, et al. 2013, Pharmacological Reports, 65:1-14). Psilocybin, a serotonergic psychedelic agent, is well known prodrug that is metabolized into the psychoactive product, psilocin (Dinis-Oliveira, R J 2017, Drug Metabolism Reviews, 49(1):84-91). […] Supernatants were analyzed for the presence of candidate prodrugs (parent molecule) and psilocin (the predicted metabolite) using Orbitrap LC-MS (Thermo Scientific) using previously described methods (Menéndez-Perdomo et al., 2021, J Mass Spectrom, 56: e4683). […] Assay concentrations (μM) of both parent ‘prodrug’ molecule and psilocin metabolite, as quantified through LC-MS using routine standard curve procedures, were plotted as functions of assay time (minutes). The metabolism rate (T1/2) was determined from the metabolism curve plot using the one phase decay feature of GraphPad PRISM software (Version 9.2.0). The quantity of parent prodrug at time zero was set as 100%. […]
# [3] = In vitro metabolic stability and psilocin-release assays, statements covering several fractions; type: in vitro ADME, human
# From the text: as §1
# [4] = biological target: T1, 5-HT2A receptor (Mus musculus, UniProt P35363); test: Drug-induced Head Twitch Response (HTR) in mice; type: in vivo; conditions: i.p. 1 mg/kg; for Head Twitch Response (HTR): 15-to-30-minute window following administration, relative to vehicle
# T1 construct: tissue Charles River; host or cells: living C57BL/6-Elite mice (brain, in vivo)
# [5] = Mouse pharmacokinetic (PK) evaluation of drug metabolism to psilocin; type: in vivo, C57Bl/6 mice; conditions: mice
# [6] = biological target: T2, 5-HT1A receptor (Homo sapiens, UniProt P08908); test: cAMP-Glo assay of 5-HT1A receptor modulation, CHO-K1/5-HT1A/Ga15 vs CHO-K1/Ga15 cells; type: cell-based; conditions: for 5-HT1A receptor modulation (cAMP, +5-HT1A vs −5-HT1A cultures): forskolin-stimulated cells, 20 minutes treatment; for cAMP levels with increasing ligand: +5-HT1A cells stimulated with forskolin, control ligands
# T2 construct: host or cells: CHO-K1 (co-expressing Ga15)
# T2 sequence (P08908 1-422): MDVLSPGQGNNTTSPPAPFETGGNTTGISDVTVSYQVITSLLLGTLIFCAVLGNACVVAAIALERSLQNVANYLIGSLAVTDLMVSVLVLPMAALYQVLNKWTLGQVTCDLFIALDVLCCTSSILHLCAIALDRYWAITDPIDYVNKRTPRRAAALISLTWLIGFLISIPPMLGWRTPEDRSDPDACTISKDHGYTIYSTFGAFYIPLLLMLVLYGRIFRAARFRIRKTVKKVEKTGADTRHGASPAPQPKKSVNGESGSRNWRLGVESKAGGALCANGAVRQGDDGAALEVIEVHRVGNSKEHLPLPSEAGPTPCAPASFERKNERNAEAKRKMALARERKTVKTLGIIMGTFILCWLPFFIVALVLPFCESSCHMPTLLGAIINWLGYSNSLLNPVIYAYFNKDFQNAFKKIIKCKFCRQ
# [7] = Solubility of the salt in water
# [8] = In vitro metabolic stability assay, human liver microsomes; type: in vitro ADME; conditions: HLM fraction, 37° C., NADPH
# From the text: as §1, with “38(2):155-160).” for “38(2):155-160). Further, it is well known that human serum, and particularly circulating serum esterases can contribute to systemic drug metabolism (Williams, F M 1987, Pharmacology and Therapeutics, 34:99-109). Many pharmacological agents are classified as prodrugs, as they undergo metabolic transformation in vivo upon administration to release the active drug compound into the systemic compartment (Zawilska J B, et al. 2013, Pharmacological Reports, 65:1-14). Psilocybin, a serotonergic psychedelic agent, is well known prodrug that is metabolized into the psychoactive product, psilocin (Dinis-Oliveira, R J 2017, Drug Metabolism Reviews, 49(1):84-91).”
# [9] = In vitro metabolic stability assay, human liver S9 fractions; type: in vitro ADME; conditions: HLS9 fraction, 37° C., NADPH
# From the text: as §1, with “38(2):155-160).” for “38(2):155-160). Further, it is well known that human serum, and particularly circulating serum esterases can contribute to systemic drug metabolism (Williams, F M 1987, Pharmacology and Therapeutics, 34:99-109). Many pharmacological agents are classified as prodrugs, as they undergo metabolic transformation in vivo upon administration to release the active drug compound into the systemic compartment (Zawilska J B, et al. 2013, Pharmacological Reports, 65:1-14). Psilocybin, a serotonergic psychedelic agent, is well known prodrug that is metabolized into the psychoactive product, psilocin (Dinis-Oliveira, R J 2017, Drug Metabolism Reviews, 49(1):84-91).”
# [10] = biological target: 5-HT2A receptor (Homo sapiens, UniProt P28223); test: [3H]ketanserin radioligand competition binding assay (SPA); conditions: [3H]ketanserin competition
# [11] = Stability assay in enzyme-free control buffer; type: in vitro ADME; conditions: negative control buffer, pH 7.4
# From the text: as §1, with “38(2):155-160).” for “38(2):155-160). Further, it is well known that human serum, and particularly circulating serum esterases can contribute to systemic drug metabolism (Williams, F M 1987, Pharmacology and Therapeutics, 34:99-109). Many pharmacological agents are classified as prodrugs, as they undergo metabolic transformation in vivo upon administration to release the active drug compound into the systemic compartment (Zawilska J B, et al. 2013, Pharmacological Reports, 65:1-14). Psilocybin, a serotonergic psychedelic agent, is well known prodrug that is metabolized into the psychoactive product, psilocin (Dinis-Oliveira, R J 2017, Drug Metabolism Reviews, 49(1):84-91).”
# T1 sequence (P35363 whole entry): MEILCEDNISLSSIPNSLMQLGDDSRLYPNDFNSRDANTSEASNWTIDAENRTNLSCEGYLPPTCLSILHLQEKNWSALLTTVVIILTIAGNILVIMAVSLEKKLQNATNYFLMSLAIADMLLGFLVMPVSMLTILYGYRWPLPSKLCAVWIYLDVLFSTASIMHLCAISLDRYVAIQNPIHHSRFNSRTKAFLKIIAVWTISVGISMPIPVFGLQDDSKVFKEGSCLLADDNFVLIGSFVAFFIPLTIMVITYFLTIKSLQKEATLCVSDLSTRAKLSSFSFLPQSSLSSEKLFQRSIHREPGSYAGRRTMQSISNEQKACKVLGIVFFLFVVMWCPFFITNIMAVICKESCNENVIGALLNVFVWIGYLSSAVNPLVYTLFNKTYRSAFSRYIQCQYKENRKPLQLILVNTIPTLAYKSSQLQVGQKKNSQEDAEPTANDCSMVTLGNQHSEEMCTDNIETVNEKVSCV
# Chain of 5-HT2A receptor (Homo sapiens, UniProt P28223) (P28223 whole entry): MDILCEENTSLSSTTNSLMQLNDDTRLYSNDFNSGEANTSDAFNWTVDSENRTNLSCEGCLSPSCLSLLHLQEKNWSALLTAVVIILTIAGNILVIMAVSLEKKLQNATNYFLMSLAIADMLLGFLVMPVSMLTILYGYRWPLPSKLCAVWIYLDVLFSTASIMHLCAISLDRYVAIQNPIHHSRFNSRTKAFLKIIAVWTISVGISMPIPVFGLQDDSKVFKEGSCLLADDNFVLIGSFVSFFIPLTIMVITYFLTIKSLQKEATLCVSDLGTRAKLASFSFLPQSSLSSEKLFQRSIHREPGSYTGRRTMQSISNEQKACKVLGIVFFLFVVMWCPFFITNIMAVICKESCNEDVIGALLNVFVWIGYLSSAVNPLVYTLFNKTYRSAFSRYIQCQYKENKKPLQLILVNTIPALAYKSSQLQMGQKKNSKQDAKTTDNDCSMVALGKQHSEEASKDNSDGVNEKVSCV
smiles,measurement,setting,value
CN(C)CCc1c[nH]c2cccc(OC(=O)OCc3ccccc3)c12 [B(II)],"CD50 (cytotoxicity, cell viability)",[1],65.9 µM
same,stability / dissociation to psilocin in serum,[2],failed completely to dissociate
same,dissociation to psilocin,"[3]; HLM, HLS9, HIM, HIS9, AB serum, buffer control",did not readily dissociate to psilocin under any conditions
same,Head Twitch Response (HTR),[4],elicit head twitching
same,time the derivative resides in plasma post-dosing,[5]; oral 10 mg/kg,up to 4 hours
CN(C)CCc1c[nH]c2cccc(OC(=O)c3ccc(Br)cc3)c12 [C(I)],"5-HT1A receptor modulation (cAMP, +5-HT1A vs −5-HT1A cultures)",[6],mild receptor modulation at higher ligand concentrations
same,Head Twitch Response (HTR),[4],Elevated incidences of HTR
COCCOCCOCC(=O)Oc1cccc2[nH]cc(CCN(C)C)c12 [C(III)],"5-HT1A receptor modulation (cAMP, +5-HT1A vs −5-HT1A cultures)",[6],significant receptor modulation
same,Head Twitch Response (HTR),[4],Elevated incidences of HTR
CN(C)CCc1c[nH]c2cccc(OC(=O)CC3CC3)c12 [C(IV)],"5-HT1A receptor modulation (cAMP, +5-HT1A vs −5-HT1A cultures)",[6],significant receptor modulation
same,Head Twitch Response (HTR),[4],Elevated incidences of HTR
COc1ccc(C(=O)Oc2cccc3[nH]cc(CCN(C)C)c23)cc1 [C(V)],"5-HT1A receptor modulation (cAMP, +5-HT1A vs −5-HT1A cultures)",[6],mild receptor modulation at higher ligand concentrations
same,Head Twitch Response (HTR),[4],Elevated incidences of HTR
CN(C)CCc1c[nH]c2cccc(OC(=O)c3c(F)c(F)c(F)c(F)c3F)c12 [C(VI)],"5-HT1A receptor modulation (cAMP, +5-HT1A vs −5-HT1A cultures)",[6],no receptor modulation at higher ligand concentrations
same,Head Twitch Response (HTR),[4],Elevated incidences of HTR
CN(C)CCc1c[nH]c2cccc(OC(=O)c3cccc(C(=O)Oc4cccc5[nH]cc(CCN(C)C)c45)c3)c12 [C(VII)],"5-HT1A receptor modulation (cAMP, +5-HT1A vs −5-HT1A cultures)",[6],no significant receptor modulation
same,Head Twitch Response (HTR),[4],Elevated incidences of HTR
COc1ccc(C(=O)Oc2cccc3[nH]cc(CCN(C)C)c23)cc1 [C(Va1)],solubility in water,[7],≥ 10 mg per mL
COc1ccc(C(=O)Oc2cccc3[nH]cc(CCN(C)C)c23)cc1.O=C(O)C(O)C(O)C(=O)O [C(Va2)],solubility in water,[7],≥ 10 mg per mL
COc1ccc(C(=O)Oc2cccc3[nH]cc(CCN(C)C)c23)cc1 [C(Vb1)],solubility in water,[7],< 1 mg in a mL
COC(=O)c1cccc(C(=O)Oc2cccc3[nH]cc(CCN(C)C)c23)c1 [C(XLIII)],"5-HT1A receptor modulation (cAMP, +5-HT1A vs −5-HT1A cultures)",[6],receptor modulation at higher ligand concentrations
CN(C)CCc1c[nH]c2cccc(OC(=O)c3cccc4c3OCCO4)c12 [C(XX)],"5-HT1A receptor modulation (cAMP, +5-HT1A vs −5-HT1A cultures)",[6],significant receptor modulation
same,Head Twitch Response (HTR),[4],Elevated incidences of HTR
CN(C)CCc1c[nH]c2cccc(OC(=O)SCc3ccccc3)c12 [E(VI)],"5-HT1A receptor modulation (cAMP, +5-HT1A vs −5-HT1A cultures)",[6],mild receptor modulation at higher ligand concentrations
same,half-life (T1/2),[8],6 min
same,half-life (T1/2),[9],5 min
same,stability / dissociation to psilocin in serum,[2],nearly completely disappears
same,conversion to psilocin,[3]; liver fractions and serum,quickly converted to psilocin in liver fractions and serum
same,"Head Twitch Response, E(VI) compared to B(II)",[4],elevated response
same,Head Twitch Response (HTR),[4]; 1 mg/kg,Elevated incidences of HTR; also recorded: elicit head twitching
same,detection of the derivative in plasma,[5]; oral 1 mg/kg,neither B(II) nor E(VI) were detected in plasma
same,detection of the derivative in plasma,[5]; oral 3 mg/kg and 10 mg/kg,never detected at any timepoint
CN(C)CCc1c[nH]c2cccc(OC(=O)SCc3ccccc3)c12.Cl [E(VIa1)],solubility in water,[7],≥ 10 mg per mL
CN(C)CCc1c[nH]c2cccc(OC(=O)SCc3ccccc3)c12 [E(VIb1)],solubility,[7],> 10000 µg/mL
"CN(C)CCc1c[nH]c2cccc(O)c12 [psilocin, reference compound]",cAMP levels with increasing ligand,[6],reduction in cAMP levels
same,"competition binding at 5-HT2A (controls, in words)",[10],binding
CN(C)CCc1c[nH]c2cccc(OP(=O)(O)O)c12 [psilocybin],stability / dissociation to psilocin in serum,[2],stable in serum with no conversion to psilocin
same,stability in assay buffer,[11],stability of psilocybin was confirmed in assay buffer
same,stability / conversion to psilocin in liver fractions,"[3]; liver fractions (HLM, HLS9)",stable in liver fractions with no conversion to psilocin
"NCCc1c[nH]c2ccc(O)cc12 [serotonin, reference compound]",cAMP levels with increasing ligand,[6],reduction in cAMP levels
"N[C@@H](Cc1c[nH]c2ccccc12)C(=O)O [tryptophan, reference compound]",cAMP levels with increasing ligand,[6],no reduction in cellular cAMP levels
same,"competition binding at 5-HT2A (controls, in words)",[10],no binding
